Measured values published in patent publication US20200187505A1, “SEED, SOIL, AND PLANT TREATMENT COMPOSITIONS” (RALCO NUTRITION, INC., priority 2017, published 2020).

System: soy
Conditions: in-furrow, five grams per acre, versus check; for average soybean seed weight per pot: FIG. 49
Text: The Generate was applied at a rate one pint per acre. The remaining compositions were applied at a rate of five grams per acre. The soy was planted in May and harvested in October, with fertilizer applications in June and July.

| Substance | total average soybean seed weight (FIG. 48) | average soybean seed weight per pot |
| --- | --- | --- |
| nickel lactate | increase total average soybean seed weight above the check | increase seed weight over the check |
| nickel ammonium citrate |  | increase seed weight over the check |
